Results as given in the supplement of paper PMC10307832.

Assays:
Assay in all cases: relative viability (nuclei count vs DMSO), 5 days (fraction); higher = more cells survive
201T = tested on: 201T
Outline: (§1)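 Lung cancer cell lines were pin-tool dosed in 1536-well plates on the day after seeding, with either a lone drug or a fixed anchor-drug dose plus five library-drug doses (not always all listed) in √10 steps. Nuclei were counted on 4× images after 5 days. Relative viability is the ratio of treated-well to vehicle-well nuclei counts, with each value a median of duplicate plates.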

COR-L 105 = tested on: COR-L 105
Outline: as §1

ChaGo-K-1 = tested on: ChaGo-K-1
Outline: as §1

EPLC-272H = tested on: EPLC-272H
Outline: as §1

H3255 = tested on: H3255
Outline: as §1

HCC-78 = tested on: HCC-78
Outline: as §1

HCC-827 = tested on: HCC-827
Outline: as §1

LC-2-ad = tested on: LC-2-ad
Outline: as §1

LCLC-97TM1 = tested on: LCLC-97TM1
Outline: as §1

NCI-H1666 = tested on: NCI-H1666
Outline: as §1

NCI-H1915 = tested on: NCI-H1915
Outline: as §1

NCI-H2087 = tested on: NCI-H2087
Outline: as §1

NCI-H2126 = tested on: NCI-H2126
Outline: as §1

NCI-H2347 = tested on: NCI-H2347
Outline: as §1

NCI-H23 = tested on: NCI-H23
Outline: as §1

NCI-H2405 = tested on: NCI-H2405
Outline: as §1

NCI-H322M = tested on: NCI-H322M
Outline: as §1

NCI-H520 = tested on: NCI-H520
Outline: as §1

NCI-H647 = tested on: NCI-H647
Outline: as §1

NCI-H650 = tested on: NCI-H650
Outline: as §1

NCI-H661 = tested on: NCI-H661
Outline: as §1

PC-14 = tested on: PC-14
Outline: as §1

RERF-LC-KJ = tested on: RERF-LC-KJ
Outline: as §1

NC(=O)Nc1cc(-c2cccc(F)c2)sc1C(=O)N[C@H]1CCCNC1 [AZD7762] + Nc1ncn([C@H]2C[C@H](O)[C@@H](CO)O2)c(=O)n1 [Decitabine] (partner 2 µM)
relative viability (201T; first compound 0.01 µM): 0.831
relative viability (201T; first compound 0.03162 µM): 0.872
relative viability (201T; first compound 0.1 µM): 0.903
relative viability (201T; first compound 0.3162 µM): 0.909
relative viability (201T; first compound 1 µM): 0.938
relative viability (COR-L 105; first compound 0.01 µM): 0.711
relative viability (COR-L 105; first compound 0.03162 µM): 0.664
relative viability (COR-L 105; first compound 0.1 µM): 0.643
relative viability (COR-L 105; first compound 0.3162 µM): 0.55
relative viability (COR-L 105; first compound 1 µM): 0.508
relative viability (ChaGo-K-1; first compound 0.01 µM): 0.52
relative viability (ChaGo-K-1; first compound 0.03162 µM): 0.553
relative viability (ChaGo-K-1; first compound 0.1 µM): 0.565
relative viability (ChaGo-K-1; first compound 0.3162 µM): 0.555
relative viability (ChaGo-K-1; first compound 1 µM): 0.597
relative viability (EPLC-272H; first compound 0.01 µM): 0.352
relative viability (EPLC-272H; first compound 0.03162 µM): 0.445
relative viability (EPLC-272H; first compound 0.1 µM): 0.356
relative viability (EPLC-272H; first compound 0.3162 µM): 0.421
relative viability (EPLC-272H; first compound 1 µM): 0.239
relative viability (H3255; first compound 0.01 µM): 0.528
relative viability (H3255; first compound 0.03162 µM): 0.708
relative viability (H3255; first compound 0.1 µM): 0.683
relative viability (H3255; first compound 0.3162 µM): 0.599
relative viability (H3255; first compound 1 µM): 0.625
relative viability (HCC-78; first compound 0.01 µM): 0.707
relative viability (HCC-78; first compound 0.03162 µM): 0.901
relative viability (HCC-78; first compound 0.1 µM): 0.824
relative viability (HCC-78; first compound 0.3162 µM): 0.904
relative viability (HCC-78; first compound 1 µM): 0.622
relative viability (HCC-827; first compound 0.01 µM): 0.312
relative viability (HCC-827; first compound 0.03162 µM): 0.428
relative viability (HCC-827; first compound 0.1 µM): 0.362
relative viability (HCC-827; first compound 0.3162 µM): 0.338
relative viability (HCC-827; first compound 1 µM): 0.233
relative viability (LC-2-ad; first compound 0.01 µM): 0.853
relative viability (LC-2-ad; first compound 0.03162 µM): 0.901
relative viability (LC-2-ad; first compound 0.1 µM): 0.796
relative viability (LC-2-ad; first compound 0.3162 µM): 0.649
relative viability (LC-2-ad; first compound 1 µM): 0.682
relative viability (LCLC-97TM1; first compound 0.01 µM): 0.259
relative viability (LCLC-97TM1; first compound 0.03162 µM): 0.265
relative viability (LCLC-97TM1; first compound 0.1 µM): 0.273
relative viability (LCLC-97TM1; first compound 0.3162 µM): 0.303
relative viability (LCLC-97TM1; first compound 1 µM): 0.346
relative viability (NCI-H1666; first compound 0.01 µM): 0.731
relative viability (NCI-H1666; first compound 0.03162 µM): 0.907
relative viability (NCI-H1666; first compound 0.1 µM): 0.924
relative viability (NCI-H1666; first compound 0.3162 µM): 0.824
relative viability (NCI-H1666; first compound 1 µM): 0.71
relative viability (NCI-H1915; first compound 0.01 µM): 0.276
relative viability (NCI-H1915; first compound 0.03162 µM): 0.297
relative viability (NCI-H1915; first compound 0.1 µM): 0.294
relative viability (NCI-H1915; first compound 0.3162 µM): 0.337
relative viability (NCI-H1915; first compound 1 µM): 0.326
relative viability (NCI-H2087; first compound 0.01 µM): 0.313
relative viability (NCI-H2087; first compound 0.03162 µM): 0.378
relative viability (NCI-H2087; first compound 0.1 µM): 0.411
relative viability (NCI-H2087; first compound 0.3162 µM): 0.475
relative viability (NCI-H2087; first compound 1 µM): 0.332
relative viability (NCI-H2126; first compound 0.01 µM): 0.562
relative viability (NCI-H2126; first compound 0.03162 µM): 0.628
relative viability (NCI-H2126; first compound 0.1 µM): 0.656
relative viability (NCI-H2126; first compound 0.3162 µM): 0.789
relative viability (NCI-H2126; first compound 1 µM): 0.741
relative viability (NCI-H2347; first compound 0.01 µM): 0.558
relative viability (NCI-H2347; first compound 0.03162 µM): 0.656
relative viability (NCI-H2347; first compound 0.1 µM): 0.725
relative viability (NCI-H2347; first compound 0.3162 µM): 0.79
relative viability (NCI-H2347; first compound 1 µM): 0.752
relative viability (NCI-H23; first compound 0.01 µM): 0.329
relative viability (NCI-H23; first compound 0.03162 µM): 0.376
relative viability (NCI-H23; first compound 0.1 µM): 0.296
relative viability (NCI-H23; first compound 0.3162 µM): 0.331
relative viability (NCI-H23; first compound 1 µM): 0.284
relative viability (NCI-H2405; first compound 0.01 µM): 0.806
relative viability (NCI-H2405; first compound 0.03162 µM): 0.777
relative viability (NCI-H2405; first compound 0.1 µM): 0.808
relative viability (NCI-H2405; first compound 0.3162 µM): 0.765
relative viability (NCI-H2405; first compound 1 µM): 0.487
relative viability (NCI-H322M; first compound 0.01 µM): 0.813
relative viability (NCI-H322M; first compound 0.03162 µM): 0.789
relative viability (NCI-H322M; first compound 0.1 µM): 0.801
relative viability (NCI-H322M; first compound 0.3162 µM): 0.783
relative viability (NCI-H322M; first compound 1 µM): 0.457
relative viability (NCI-H520; first compound 0.01 µM): 0.521
relative viability (NCI-H520; first compound 0.03162 µM): 0.522
relative viability (NCI-H520; first compound 0.1 µM): 0.52
relative viability (NCI-H520; first compound 0.3162 µM): 0.475
relative viability (NCI-H520; first compound 1 µM): 0.246
relative viability (NCI-H647; first compound 0.01 µM): 0.475
relative viability (NCI-H647; first compound 0.03162 µM): 0.501
relative viability (NCI-H647; first compound 0.1 µM): 0.441
relative viability (NCI-H647; first compound 0.3162 µM): 0.356
relative viability (NCI-H647; first compound 1 µM): 0.156
relative viability (NCI-H650; first compound 0.01 µM): 0.359
relative viability (NCI-H650; first compound 0.03162 µM): 0.404
relative viability (NCI-H650; first compound 0.1 µM): 0.437
relative viability (NCI-H650; first compound 0.3162 µM): 0.493
relative viability (NCI-H650; first compound 1 µM): 0.493
relative viability (NCI-H661; first compound 0.01 µM): 0.689
relative viability (NCI-H661; first compound 0.03162 µM): 0.62
relative viability (NCI-H661; first compound 0.1 µM): 0.642
relative viability (NCI-H661; first compound 0.3162 µM): 0.609
relative viability (NCI-H661; first compound 1 µM): 0.356
relative viability (PC-14; first compound 0.01 µM): 0.234
relative viability (PC-14; first compound 0.03162 µM): 0.225
relative viability (PC-14; first compound 0.1 µM): 0.166
relative viability (PC-14; first compound 0.3162 µM): 0.137
relative viability (PC-14; first compound 1 µM): 0.0898
relative viability (RERF-LC-KJ; first compound 0.01 µM): 0.743
relative viability (RERF-LC-KJ; first compound 0.03162 µM): 0.793
relative viability (RERF-LC-KJ; first compound 0.1 µM): 0.962
relative viability (RERF-LC-KJ; first compound 0.3162 µM): 0.845
relative viability (RERF-LC-KJ; first compound 1 µM): 0.611
